In one experiment the target is HIV-1 RT (Human immunodeficiency virus type 1 group M subtype B, UniProt P04585). The settings on record: Tachedjian et al., 2001, PNAS, 7188-7193; cited from earlier work.
Experiment [1] has as its target T1, unlabeled P2C/C38S/C280S p66/p66 RT (Human immunodeficiency virus type 1 group M subtype B, UniProt P04585, C625S/C867S/P588C).
T1 construct: made in house; host or cells: E. coli JM109 (pKK-RT66-P2C)
The experiment can be described thus: Inhibition of unlabeled P2C/C38S/C280S p66/p66 RT by HIV RT inhibitors. It counts as biochemical, HIV-1.

Experiment [2] addresses T2, Eu^3+-labeled P2C/C38S/C280S p66/p66 RT (Human immunodeficiency virus type 1 group M subtype B, UniProt P04585, C625S/C867S/P588C).
T2 construct: made in house; host or cells: E. coli JM109 (pKK-RT66-P2C), then chemical alkylation
The experiment can be described thus: Inhibition of Eu3+-labeled P2C/C38S/C280S p66/p66 RT by HIV RT inhibitors. It counts as biochemical, HIV-1. The settings on record: P2C/C38S/C280S p66/p66 RT alkylated with Eu-N1-iodoacetamido chelate.
Experimental: Purified P2C/C38S/C280S p66/p66 RT was concentrated to approximately 20 μM (˜2.5 mg/ml) in 50 mM Tris-HCl buffer (pH 7.9 at 20° C.) containing 100 mM NaCl and 1 mM TCEP-HCl (Tris(2-carboxyethyl)phosphine hydrochloride (Pierce)) at room temperature. An aliquot of Eu-N1-iodoacetamido chelate protein-modification reagent (prepared as a 5 mM stock solution in DMSO) was added to provide an approximately 20-fold molar excess relative to the p66 subunit concentration. The alkylation reaction was allowed to proceed for up to 6 hours at room temperature. Alternatively, the reaction may be carried out overnight at 4° C. Upon completion of the reaction, an excess of DTT was added to consume unreacted Eu-N 1-iodoacetamido chelate. The alkylated p66/p66 RT was separated from the DTT-reagent conjugate by two passages through a NAPT™ 25 column equilibrated with a 25 mM Tris-HCl buffer (pH 7.5, 20° C.) containing 60 mM MgCl2 and 50% glycerol. The stoichiometry of labeling was generally found to be between 0.7-1 mol of Eu-N1-iodoacetamide per mol of p66 RT subunit (i.e., 1.5-2 mol/mol p66/p66 RT homodimer).

For another experiment, the target named is T3, WT p66/p66 RT (Human immunodeficiency virus type 1 group M subtype B, UniProt P04585).
T3 construct: IPTG-dependent expression of the non-HIS-tagged 66 kDa RT subunit; made in house; host or cells: E. coli JM109 (pKK-RT66WT)
The experiment can be described thus: Inhibition of WT p66/p66 RT (data not shown). It counts as biochemical, HIV-1. The source says:
The P2C/C38S/C280S p66/p66 RT chemically alkylated with the Eu-N1-iodoacetamido chelate retains approximately 80% of the RDDP activity of the unmodified protein (Table 1). […] Thus, the genetic and chemical manipulations of RT required to prepare reagents for the dimerization assay appear to have little effect on the response of the enzyme within the parameters of the assay protocol.

For experiment [3], the target named is HIV-1 RT p66/p51 heterodimer (Human immunodeficiency virus type 1 group M subtype B, UniProt P04585, C625S/C867S/P588C). The experiment can be described thus: TRF microplate assay of p66/p51 RT heterodimer formation. The following applies: compound at 10 μM; dimer formation 6 h; urea diluted 3.5 M to 0.35 M.
Experimental: The general principle of the assay involves mixing of His6x-p51 with fluorophore-labeled p66 RT in solution, with subsequent solid-phase capture of resulting His6x-p51/fluorophore-labeled p66 RT heterodimer on Ni^2+-NTA microplates. After washing to remove unbound material, the amount of microplate-associated fluorescence is measured in an appropriate fluorescence plate reader.
In a total volume of 20 μl, mix 100 pmol of purified His6x-p51 RT subunit and 200 pmol of Eu-N1-iodoacetamido chelate labeled p66 RT subunit (i.e., 100 pmol RT p66/p66 homodimer) with urea (prepared in 25 mM Tris-HCl pH 7.5, 20° C., containing 100 mM MgCl2) to provide a final concentration of 3.5 M urea. Incubate this mixture for 1 h at room temperature.
Dilute this solution into 200 μL of a solution of the compound of interest at 10 μM (in 25 mM Tris-HCl pH 7.5, 20° C., containing 50 mM Na2SO4) contained in a well of a 96-well Ni-NTA HiSorb Plate.
The dilution step provides a 10-fold dilution to reduce the urea concentration from 3.5M to 0.35M, thereby allowing formation of the RT p66/p51 heterodimer. Dimer formation is allowed to proceed for 6 h, then the plates are washed 3× with Delfia wash buffer containing 200 μM DTPA. After washing, 200 μL of the Delfia enhancement solution is added to each well, followed by incubation at room temperature for 30 minutes.

As usually defined, the IC50 is the concentration needed to halve the response being measured.

The structures appear in SMILES notation.

On to `Cc1ccnc2c1NC(=O)c1cccnc1N2C1CC1` [Nevirapine], for which the “Effect on dimerization of the HIV-1 RT as reported” value on HIV-1 RT is “chemical enhancers of dimerization”.

With `CCn1c(=O)c(C)cn([C@@H]2O[C@H](CO[Si](C)(C)C(C)(C)C)C3(OS(=O)(=O)C=C3N)[C@H]2O[Si](C)(C)C(C)(C)C)c1=O` (some centres unmarked) [TSAOe3T], the IC50 in experiment [1] and in experiment [2] was 3000 nM throughout. Further, on WT p66/p66 RT, the “Sensitivity of WT p66/p66 RT to inhibition compared with unmodified P2C/C38S/C280S p66/p66 mutant” value is “equally sensitive”. Consider `Cc1cn([C@@H]2O[C@H](CO[Si](C)(C)C(C)(C)C)[C@@]3(OS(=O)(=O)C=C3N)[C@H]2O[Si](C)(C)C(C)(C)C)c(=O)n(C)c1=O` [TSAOm^3T], for which the “TRF signal relative to control (RT dimerization, FIG. 5B)” value in experiment [3] is reported as “decreases the signal”.

(Values after patent US6811970B2, “Assay for identifying inhibitors of HIV RT dimerization” (priority 2001, dated 2004).)
